Test results: patent publication US9175003B2, “Substituted azoanthracene derivatives and intermediates for preparation thereof” (TransTech Pharma, LLC, priority 2009, dated 2015)

biological target: human GLP-1 receptor (Homo sapiens (Human), UniProt P43220); conditions: read-out: Mean EC50; cAMP, HTRF detection, 30 min at 37° C., HEK-293 cells expressing cloned human GLP-1 receptor
Sequence (P43220 24-463): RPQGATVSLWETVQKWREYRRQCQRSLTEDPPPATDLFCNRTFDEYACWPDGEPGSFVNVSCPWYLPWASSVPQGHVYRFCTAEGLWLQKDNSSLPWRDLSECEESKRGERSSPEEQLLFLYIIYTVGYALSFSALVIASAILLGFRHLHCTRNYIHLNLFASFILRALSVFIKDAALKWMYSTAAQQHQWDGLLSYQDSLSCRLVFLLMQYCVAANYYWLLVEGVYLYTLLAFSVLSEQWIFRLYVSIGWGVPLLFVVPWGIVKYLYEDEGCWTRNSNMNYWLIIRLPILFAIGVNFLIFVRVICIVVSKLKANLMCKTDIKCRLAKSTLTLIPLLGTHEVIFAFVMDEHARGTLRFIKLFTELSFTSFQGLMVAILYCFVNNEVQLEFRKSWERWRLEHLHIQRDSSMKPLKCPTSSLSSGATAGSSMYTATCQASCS

In order of falling EC50:
1. CCCCOC(=O)N1Cc2cc3c(cc2C[C@H]1C(=O)N[C@@H](Cc1ccc(Oc2ccnc(C)c2C)cc1)C(=O)O)OC[C@H](c1ccc(OCc2ccc(Cl)c(Cl)c2)cc1)O3 [Example 299, (3S,8S)-8-{(S)-1-Carboxy-2-[4-(2,3-dimethyl-pyridin-4-yloxy)-phenyl]-ethylcarbamoyl}-3-[4-(3,4-dichloro-benzyloxy)-phenyl]-2,3,8,9-tetrahydro-6H-[1,4]dioxino[2,3-g]isoquinoline-7-carboxylic acid butyl ester]  263 nM
2. Cc1nccc(-c2ccc(C[C@H](NC(=O)[C@@H]3Cc4cc5c(cc4CN3C(=O)OC(C)C)O[C@@H](c3ccc(OCc4ccc(Cl)c(Cl)c4)cc3)CO5)C(=O)O)cc2)c1C [Example 293, (3S,8S)-8-{(S)-1-Carboxy-2-[4-(2,3-dimethyl-pyridin-4-yl)-phenyl]-ethylcarbamoyl}-3-[4-(3,4-dichloro-benzyloxy)-phenyl]-2,3,8,9-tetrahydro-6H-[1,4]dioxino[2,3-g]isoquinoline-7-carboxylic acid isopropyl ester]  261 nM
3. Cc1nccc(-c2ccc(C[C@H](NC(=O)[C@@H]3Cc4cc5c(cc4CN3C(=O)c3ccccc3)O[C@@H](c3ccc(OCC4CCCC4)cc3)CO5)C(=O)O)cc2)c1C [Example 305, (S)-2-{[(3S,8S)-7-Benzoyl-3-(4-cyclopentylmethoxy-phenyl)-2,3,6,7,8,9-hexahydro-[1,4]dioxino[2,3-g]isoquinoline-8-carbonyl]-amino}-3-[4-(2,3-dimethyl-pyridin-4-yl)-phenyl]-propionic acid]  200 nM
4. Cc1nccc(-c2ccc(C[C@H](NC(=O)[C@@H]3Cc4cc5c(cc4CN3C(=O)C3Cc4ccccc4C3)O[C@@H](c3ccc(OCc4ccc(Cl)c(Cl)c4)cc3)CO5)C(=O)O)cc2)c1C [Example 282, (S)-2-{[(3S,8S)-3-[4-(3,4-Dichloro-benzyloxy)-phenyl]-7-(indane-2-carbonyl)-2,3,6,7,8,9-hexahydro-[1,4]dioxino[2,3-g]isoquinoline-8-carbonyl]-amino}-3-[4-(2,3-dimethyl-pyridin-4-yl)-phenyl]-propionic acid]  198 nM
5. CCC(C)(C)NC(=O)N1Cc2cc3c(cc2C[C@H]1C(=O)N[C@@H](Cc1ccc(-c2ccnc(C)c2C)cc1)C(=O)O)OC[C@H](c1ccc(OCc2ccc(Cl)c(Cl)c2)cc1)O3 [Example 319, (S)-2-{[(3S,8S)-3-[4-(3,4-Dichloro-benzyloxy)-phenyl]-7-(1,1-dimethyl-propylcarbamoyl)-2,3,6,7,8,9-hexahydro-[1,4]dioxino[2,3-g]isoquinoline-8-carbonyl]-amino}-3-[4-(2,3-dimethyl-pyridin-4-yl)-phenyl]-propionic acid]  183 nM
6. Cc1nccc(Oc2ccc(C[C@H](NC(=O)[C@@H]3Cc4cc5c(cc4CN3C(=O)OCc3ccccc3)O[C@@H](c3ccc(OCc4ccc(Cl)c(Cl)c4)cc3)CO5)C(=O)O)cc2)c1C [Example 302, (3S,8S)-8-{(S)-1-Carboxy-2-[4-(2,3-dimethyl-pyridin-4-yloxy)-phenyl]-ethylcarbamoyl}-3-[4-(3,4-dichloro-benzyloxy)-phenyl]-2,3,8,9-tetrahydro-6H-[1,4]dioxino[2,3-g]isoquinoline-7-carboxylic acid benzyl ester]  182 nM
7. Cc1nccc(-c2ccc(C[C@H](NC(=O)[C@@H]3Cc4cc5c(cc4CN3C(=O)NC(C)(C)c3ccccc3)O[C@@H](c3ccc(OCc4ccc(Cl)c(Cl)c4)cc3)CO5)C(=O)O)cc2)c1C [Example 323, (S)-2-{[(3S,8S)-3-[4-(3,4-Dichloro-benzyloxy)-phenyl]-7-(1-methyl-1-phenyl-ethylcarbamoyl)-2,3,6,7,8,9-hexahydro-[1,4]dioxino[2,3-g]isoquinoline-8-carbonyl]-amino}-3-[4-(2,3-dimethyl-pyridin-4-yl)-phenyl]-propionic acid]  178 nM
8. Cc1nccc(-c2ccc(C[C@H](NC(=O)[C@@H]3Cc4cc5c(cc4CN3C(=O)[C@H]3CCN(C(=O)OC(C)(C)C)C3)O[C@@H](c3ccc(OCc4ccc(Cl)c(Cl)c4)cc3)CO5)C(=O)O)cc2)c1C [Example 280, (S)-3-{(3S,8S)-8-{(S)-1-Carboxy-2-[4-(2,3-dimethyl-pyridin-4-yl)-phenyl]-ethylcarbamoyl}-3-[4-(3,4-dichloro-benzyloxy)-phenyl]-2,3,8,9-tetrahydro-6H-[1,4]dioxino[2,3-g]isoquinoline-7-carbonyl}-pyrrolidine-1-carboxylic acid tert-butyl ester]  165 nM
9. Cc1nccc(-c2ccc(C[C@H](NC(=O)[C@@H]3Cc4cc5c(cc4CN3C(=O)c3ccccc3)O[C@@H](c3ccc(OCCC(C)(C)C)cc3)CO5)C(=O)O)cc2)c1C [Example 303, (S)-2-({(3S,8S)-7-Benzoyl-3-[4-(3,3-dimethyl-butoxy)-phenyl]-2,3,6,7,8,9-hexahydro-[1,4]dioxino[2,3-g]isoquinoline-8-carbonyl}-amino)-3-[4-(2,3-dimethyl-pyridin-4-yl)-phenyl]-propionic acid]  141 nM
10. Cc1nccc(-c2ccc(C[C@H](NC(=O)[C@@H]3Cc4cc5c(cc4CN3C(=O)OCC(C)C)O[C@@H](c3ccc(OCc4ccc(Cl)c(Cl)c4)cc3)CO5)C(=O)O)cc2)c1C [Example 295, (3S,8S)-8-{(S)-1-Carboxy-2-[4-(2,3-dimethyl-pyridin-4-yl)-phenyl]-ethylcarbamoyl}-3-[4-(3,4-dichloro-benzyloxy)-phenyl]-2,3,8,9-tetrahydro-6H-[1,4]dioxino[2,3-g]isoquinoline-7-carboxylic acid isobutyl ester]  137 nM
11. Cc1nccc(-c2ccc(C[C@H](NC(=O)[C@@H]3Cc4cc5c(cc4CN3C(=O)c3ccn(C)n3)O[C@@H](c3ccc(OCc4ccc(Cl)c(Cl)c4)cc3)CO5)C(=O)O)cc2)c1C [Example 324, (S)-2-{[(3S,8S)-3-[4-(3,4-Dichloro-benzyloxy)-phenyl]-7-(1-methyl-1H-pyrazole-3-carbonyl)-2,3,6,7,8,9-hexahydro-[1,4]dioxino[2,3-g]isoquinoline-8-carbonyl]-amino}-3-[4-(2,3-dimethyl-pyridin-4-yl)-phenyl]-propionic acid]  126 nM
12. Cc1nccc(-c2ccc(C[C@H](NC(=O)[C@@H]3Cc4cc5c(cc4CN3C(=O)c3ccccc3)O[C@@H](c3ccc(O[C@H]4CC[C@H](C)CC4)cc3)CO5)C(=O)O)cc2)c1C [Example 306, (S)-2-({(3S,8S)-7-Benzoyl-3-[4-(trans-4-methyl-cyclohexyloxy)-phenyl]-2,3,6,7,8,9-hexahydro-[1,4]dioxino[2,3-g]isoquinoline-8-carbonyl}-amino)-3-[4-(2,3-dimethyl-pyridin-4-yl)-phenyl]-propionic acid]  103 nM
13. Cc1nccc(-c2ccc(C[C@H](NC(=O)[C@@H]3Cc4cc5c(cc4CN3C(=O)N3CCOCC3)O[C@@H](c3ccc(OCc4ccc(Cl)c(Cl)c4)cc3)CO5)C(=O)O)cc2)c1C [Example 311, (S)-2-{[(3S,8S)-3-[4-(3,4-Dichloro-benzyloxy)-phenyl]-7-(morpholine-4-carbonyl)-2,3,6,7,8,9-hexahydro-[1,4]dioxino[2,3-g]isoquinoline-8-carbonyl]-amino}-3-[4-(2,3-dimethyl-pyridin-4-yl)-phenyl]-propionic acid]  74 nM
14. Cc1nccc(-c2ccc(C[C@H](NC(=O)[C@@H]3Cc4cc5c(cc4CN3C(=O)N3CCCC3)O[C@@H](c3ccc(OCc4ccc(Cl)c(Cl)c4)cc3)CO5)C(=O)O)cc2)c1C [Example 313, (S)-2-{[(3S,8S)-3-[4-(3,4-Dichloro-benzyloxy)-phenyl]-7-(pyrrolidine-1-carbonyl)-2,3,6,7,8,9-hexahydro-[1,4]dioxino[2,3-g]isoquinoline-8-carbonyl]-amino}-3-[4-(2,3-dimethyl-pyridin-4-yl)-phenyl]-propionic acid]  73 nM
15. Cc1nccc(-c2ccc(C[C@H](NC(=O)[C@@H]3Cc4cc5c(cc4CN3C(=O)NC3(C)CCC3)O[C@@H](c3ccc(OCc4ccc(Cl)c(Cl)c4)cc3)CO5)C(=O)O)cc2)c1C [Example 320, (S)-2-{[(3S,8S)-3-[4-(3,4-Dichloro-benzyloxy)-phenyl]-7-(1-methyl-cyclobutylcarbamoyl)-2,3,6,7,8,9-hexahydro-[1,4]dioxino[2,3-g]isoquinoline-8-carbonyl]-amino}-3-[4-(2,3-dimethyl-pyridin-4-yl)-phenyl]-propionic acid]  45 nM
16. Cc1nccc(-c2ccc(C[C@H](NC(=O)[C@@H]3Cc4cc5c(cc4CN3C(=O)N3CCCCC3)O[C@@H](c3ccc(OCc4ccc(Cl)c(Cl)c4)cc3)CO5)C(=O)O)cc2)c1C [Example 312, (S)-2-{[(3S,8S)-3-[4-(3,4-Dichloro-benzyloxy)-phenyl]-7-(piperidine-1-carbonyl)-2,3,6,7,8,9-hexahydro-[1,4]dioxino[2,3-g]isoquinoline-8-carbonyl]-amino}-3-[4-(2,3-dimethyl-pyridin-4-yl)-phenyl]-propionic acid]  32 nM
17. Cc1nccc(-c2ccc(C[C@H](NC(=O)[C@@H]3Cc4cc5c(cc4CN3C(=O)[C@H]3CCCN3C(=O)OC(C)(C)C)O[C@@H](c3ccc(OCc4ccc(Cl)c(Cl)c4)cc3)CO5)C(=O)O)cc2)c1C [Example 279, (R)-2-{(3S,8S)-8-{(S)-1-Carboxy-2-[4-(2,3-dimethyl-pyridin-4-yl)-phenyl]-ethylcarbamoyl}-3-[4-(3,4-dichloro-benzyloxy)-phenyl]-2,3,8,9-tetrahydro-6H-[1,4]dioxino[2,3-g]isoquinoline-7-carbonyl}-pyrrolidine-1-carboxylic acid tert-butyl ester]  15 nM
18. Cc1nccc(-c2ccc(C[C@H](NC(=O)[C@@H]3Cc4cc5c(cc4CN3C(=O)[C@@H]3CCN(C(=O)OC(C)(C)C)C3)O[C@@H](c3ccc(OCc4ccc(Cl)c(Cl)c4)cc3)CO5)C(=O)O)cc2)c1C [Example 281, (R)-3-{(3S,8S)-8-{(S)-1-Carboxy-2-[4-(2,3-dimethyl-pyridin-4-yl)-phenyl]-ethylcarbamoyl}-3-[4-(3,4-dichloro-benzyloxy)-phenyl]-2,3,8,9-tetrahydro-6H-[1,4]dioxino[2,3-g]isoquinoline-7-carbonyl}-pyrrolidine-1-carboxylic acid tert-butyl ester]  5 nM
